The results in this text go back to patent US9802901B2, “Antibacterial 2H-indazole derivatives” (priority 2013, dated 2017).

Converted amounts (≈) assume the structure as drawn.

Test in all cases: Bacterial growth minimal inhibitory concentration (broth microdilution, CLSI M7-A7)
In general terms: In broth dilution the organism is exposed to a series of concentrations in liquid medium.

One experiment deals with E. coli ATCC25922. It is filed as cell-based, Escherichia coli. The conditions noted are these: cation-adjusted Mueller-Hinton Broth, microdilution, quinolone-sensitive strain; for MIC: Escherichia coli, ATCC25922, read-out: MIC for E. coli ATCC25922. The method in brief: (§1)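 Broth microdilution in cation-adjusted Mueller-Hinton Broth per CLSI M7-A7; MICs reported in mg/L. K. pneumoniae A-651 and A. baumannii T6474 are multiply resistant, quinolone-resistant strains; E. coli ATCC25922 and P. aeruginosa ATCC27853 are quinolone-sensitive.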

In the next experiment the test system is P. aeruginosa ATCC27853. The format is cell-based, Pseudomonas aeruginosa. Conditions: cation-adjusted Mueller-Hinton Broth, microdilution, quinolone-sensitive strain; for MIC: Pseudomonas aeruginosa, ATCC27853, read-out: MIC for P. aeruginosa ATCC27853. The method in brief:
as §1

Experiment [1] deals with Acinetobacter baumannii T6474. The format is cell-based. The conditions noted are these: cation-adjusted Mueller-Hinton Broth, microdilution, multiply-resistant (quinolone-resistant) strain; for MIC: Acinetobacter baumannii, T6474, read-out: MIC for A. Baumannii T6474. Put shortly: as §1
For another experiment, the system named is K. pneumoniae A-651. It is filed as cell-based, Klebsiella pneumoniae. Conditions: cation-adjusted Mueller-Hinton Broth, microdilution, multiply-resistant (quinolone-resistant) strain; for MIC: Klebsiella pneumoniae, A651, read-out: MIC for K. Pneumoniae A-651. Put shortly: as §1

In the case of `CC(CCn1cc2cc(-c3ccc(OCCCN4CCOCC4)cc3)ccc2n1)(C(=O)NO)S(C)(=O)=O.O=CO` (racemic) [RE1, (RS)—N-hydroxy-2-methylsulfonyl-2-methyl-4-{5-[4-(3-morpholin-4-yl-propoxy)-phenyl]-indazol-2-yl}-butanamide formic acid salt], the MIC with E. coli ATCC25922 is 0.5 µg/mL; with P. aeruginosa ATCC27853, 4 µg/mL; in experiment [1], 4 µg/mL; in the experiment with K. pneumoniae A-651, 1 µg/mL.

For the compound `C[C@@](CCn1cc2cc(C#Cc3ccc(C4(O)COC4)cc3)ccc2n1)(C(=O)NO)S(C)(=O)=O` [Example 20, (R)—N-hydroxy-4-{5-[4-(3-hydroxy-oxetan-3-yl)-phenylethynyl]-indazol-2-yl}-2-methylsulfonyl-2-methyl-butanamide], the MIC with E. coli ATCC25922 is 0.25 µg/mL (≈ 0.517 µM); in the experiment with P. aeruginosa ATCC27853, 0.5 µg/mL (≈ 1.03 µM); in experiment [1] it was 0.5 µg/mL (≈ 1.03 µM); in the experiment with K. pneumoniae A-651, 0.125 µg/mL (≈ 0.259 µM).

In the case of `C[C@@](CCn1cc2cc(C#CC#CC3CCNCC3)ccc2n1)(C(=O)NO)S(C)(=O)=O` [Example 76, (R)—N-hydroxy-2-methyl-2-(methylsulfonyl)-4-(5-(piperidin-4-ylbuta-1,3-diyn-1-yl)-2H-indazol-2-yl)butanamide], the minimum inhibitory concentration (MIC) in the experiment on E. coli ATCC25922 was 8 µg/mL (≈ 18.1 µM); with P. aeruginosa ATCC27853, 2 µg/mL (≈ 4.52 µM); in experiment [1] it was more than 32 µg/mL; in the experiment on K. pneumoniae A-651, 32 µg/mL (≈ 72.3 µM).

For the compound `C[C@@](CCn1cc2cc(C#Cc3ccc(C4(CO)COC4)cc3)ccc2n1)(C(=O)NO)S(C)(=O)=O` [Example 43, (R)—N-hydroxy-4-(5-((4-(3-(hydroxymethyl)oxetan-3-yl)phenyl)ethynyl)-2H-indazol-2-yl)-2-methyl-2-(methylsulfonyl)butanamide], the MIC in the experiment with E. coli ATCC25922 amounted to 1 µg/mL (≈ 2.01 µM); in the experiment with P. aeruginosa ATCC27853, 2 µg/mL (≈ 4.02 µM); in experiment [1], 2 µg/mL (≈ 4.02 µM); with K. pneumoniae A-651, 1 µg/mL (≈ 2.01 µM).

With `C[C@@](CCn1cc2cc(C#CC#C[C@H]3C[C@@H]3CO)ccc2n1)(C(=O)NO)S(C)(=O)=O.O=CO` [Example 36, (R)—N-hydroxy-4-(5-(((1S,2S)-2-(hydroxymethyl)cyclopropyl)buta-1,3-diyn-1-yl)-2H-indazol-2-yl)-2-methyl-2-(methylsulfonyl)butanamide formate], the MIC in the experiment with E. coli ATCC25922 stood at 0.063 µg/mL; in the experiment on P. aeruginosa ATCC27853, 0.25 µg/mL; in experiment [1], 2 µg/mL; in the experiment with K. pneumoniae A-651, 0.125 µg/mL.

Turning to `C[C@@](CCn1cc2cc(C#Cc3ccc([C@H](O)CO)cc3)ccc2n1)(C(=O)NO)S(C)(=O)=O` [Example 51, (R)-4-(5-((4-((S)-1,2-dihydroxyethyl)phenyl)ethynyl)-2H-indazol-2-yl)-N-hydroxy-2-methyl-2-(methylsulfonyl)butanamide], the MIC in the experiment with E. coli ATCC25922 worked out at 1 µg/mL (≈ 2.12 µM); in the experiment on P. aeruginosa ATCC27853 it was 0.5 µg/mL (≈ 1.06 µM); in experiment [1], 1 µg/mL (≈ 2.12 µM); in the experiment with K. pneumoniae A-651, 0.5 µg/mL (≈ 1.06 µM).

On to `COc1ccc(-c2ccc3nn(CC[C@](C)(C(=O)NO)S(C)(=O)=O)cc3c2)cc1` [Example 2, (R)—N-hydroxy-2-methylsulfonyl-4-[5-(4-methoxy-phenyl)-indazol-2-yl]-2-methyl-butanamide], for which the MIC in the experiment with E. coli ATCC25922 came out at 0.125 µg/mL (≈ 0.299 µM); in the experiment on P. aeruginosa ATCC27853 it was 4 µg/mL (≈ 9.58 µM); in experiment [1], 1 µg/mL (≈ 2.4 µM); with K. pneumoniae A-651, 0.5 µg/mL (≈ 1.2 µM).

Regarding `C[C@@](CCn1cc2cc(C#CC#CC34CC(CO)(C3)C4)ccc2n1)(C(=O)NO)S(C)(=O)=O` [Example 57, (R)—N-hydroxy-4-(5-((3-(hydroxymethyl)bicyclo[1.1.1]pentan-1-yl)buta-1,3-diyn-1-yl)-2H-indazol-2-yl)-2-methyl-2-(methylsulfonyl)butanamide], the MIC with E. coli ATCC25922 was 0.125 µg/mL (≈ 0.274 µM); in the experiment with P. aeruginosa ATCC27853, 0.5 µg/mL (≈ 1.1 µM); in experiment [1] it was 8 µg/mL (≈ 17.6 µM); with K. pneumoniae A-651 it was 0.25 µg/mL (≈ 0.549 µM).

Take `C[C@@](CCn1cc2cc(C#CC#CCC3(O)CC(CO)C3)ccc2n1)(C(=O)NO)S(C)(=O)=O` (some centres unmarked) [Example 66]: the “MIC for E. coli ATCC25922” value with E. coli ATCC25922 amounted to 1 µg/mL. Besides, the “MIC for P. aeruginosa ATCC27853” value against P. aeruginosa ATCC27853 worked out at 2 µg/mL. For the same compound, the “MIC for A. Baumannii T6474” value in experiment [1] is more than 32 µg/mL. In addition, the “MIC for K. Pneumoniae A-651” value in the experiment with K. pneumoniae A-651 stood at 4 µg/mL.

Turning to `COc1ccc(-c2ccc3nn(CC[C@](C)(C(=O)NO)S(C)(=O)=O)cc3c2)c(F)c1` [Example 1, (R)-4-[5-(2-fluoro-4-methoxy-phenyl)-indazol-2-yl]-N-hydroxy-2-methylsulfonyl-2-methyl-butanamide], the MIC is 0.063 µg/mL (≈ 0.145 µM) with E. coli ATCC25922, 2 µg/mL (≈ 4.59 µM) in the experiment on P. aeruginosa ATCC27853, 1 µg/mL (≈ 2.3 µM) in experiment [1] and 0.063 µg/mL (≈ 0.145 µM) in the experiment on K. pneumoniae A-651.

Turning to `C[C@@](CCn1cc2cc(C#Cc3ccc([C@@H](O)CO)cc3)ccc2n1)(C(=O)NO)S(C)(=O)=O` [Example 26, (2R)-4-{5-[4-((R)-1,2-dihydroxy-ethyl)-phenylethynyl]-indazol-2-yl}-N-hydroxy-2-methylsulfonyl-2-methyl-butanamide], the minimum inhibitory concentration (MIC) is 0.5 µg/mL (≈ 1.06 µM) in the experiment with E. coli ATCC25922, 1 µg/mL (≈ 2.12 µM) in the experiment with P. aeruginosa ATCC27853, 8 µg/mL (≈ 17 µM) in experiment [1] and 0.5 µg/mL (≈ 1.06 µM) in the experiment on K. pneumoniae A-651.

Turning to `COc1ccc(-c2ccc3nn(CC[C@](C)(C(=O)NO)S(C)(=O)=O)cc3c2F)c(F)c1` [Example 6, (R)-4-[4-fluoro-5-(2-fluoro-4-methoxy-phenyl)-indazol-2-yl]-N-hydroxy-2-methylsulfonyl-2-methyl-butanamide], the MIC in the experiment with E. coli ATCC25922 was 0.125 µg/mL (≈ 0.276 µM); with P. aeruginosa ATCC27853, 4 µg/mL (≈ 8.82 µM); in experiment [1], 2 µg/mL (≈ 4.41 µM); in the experiment on K. pneumoniae A-651, 0.5 µg/mL (≈ 1.1 µM).

Take `C[C@@](CCn1cc2cc(C#Cc3ccc(CN4CCOCC4)cc3)ccc2n1)(C(=O)NO)S(C)(=O)=O.O=CO` [Example 7, (R)—N-hydroxy-2-methylsulfonyl-2-methyl-4-[5-(4-morpholin-4-ylmethyl-phenylethynyl)-indazol-2-yl]-butanamide formate]: the MIC came to 0.25 µg/mL in the experiment with E. coli ATCC25922, 2 µg/mL in the experiment with P. aeruginosa ATCC27853, 0.5 µg/mL in experiment [1] and 0.125 µg/mL in the experiment with K. pneumoniae A-651.

Turning to `C[C@@](CCn1cc2c(F)c(C#Cc3ccc(C4(O)COC4)cc3)ccc2n1)(C(=O)NO)S(C)(=O)=O` [Example 29, (R)-4-{4-fluoro-5-[4-(3-hydroxy-oxetan-3-yl)-phenylethynyl]-indazol-2-yl}-N-hydroxy-2-methylsulfonyl-2-methyl-butanamide], the MIC in the experiment with E. coli ATCC25922 turned out to be 0.25 µg/mL (≈ 0.498 µM); with P. aeruginosa ATCC27853, 1 µg/mL (≈ 1.99 µM); in experiment [1] it was 0.5 µg/mL (≈ 0.997 µM); in the experiment with K. pneumoniae A-651 it was 0.25 µg/mL (≈ 0.498 µM).

As to `CC(C)(O)c1ccc(C#Cc2ccc3nn(CC[C@](C)(C(=O)NO)S(C)(=O)=O)cc3c2F)cc1` [Example 14, (R)-4-(4-fluoro-5-((4-(2-hydroxypropan-2-yl)phenyl)ethynyl)-2H-indazol-2-yl)-N-hydroxy-2-methyl-2-(methylsulfonyl)butanamide], the MIC stood at 0.25 µg/mL (≈ 0.513 µM) with E. coli ATCC25922, 2 µg/mL (≈ 4.1 µM) in the experiment on P. aeruginosa ATCC27853, 16 µg/mL (≈ 32.8 µM) in experiment [1] and 0.25 µg/mL (≈ 0.513 µM) in the experiment on K. pneumoniae A-651.

With `C[C@@](CCn1cc2cc(C#Cc3ccc(C4(N)CC4)cc3)ccc2n1)(C(=O)NO)S(C)(=O)=O.O=CO` [Example 79, (R)-4-(5-((4-(1-aminocyclopropyl)phenyl)ethynyl)-2H-indazol-2-yl)-N-hydroxy-2-methyl-2-(methylsulfonyl)butanamide formate], the MIC with E. coli ATCC25922 amounted to 0.125 µg/mL; in the experiment on P. aeruginosa ATCC27853, 1 µg/mL; in experiment [1], 2 µg/mL; with K. pneumoniae A-651, 0.25 µg/mL.

With `C[C@@](CCn1cc2cc(C#CC#CC3(N)CC3)ccc2n1)(C(=O)NO)S(C)(=O)=O` [Example 65, (R)-4-(5-((1-aminocyclopropyl)buta-1,3-diyn-1-yl)-2H-indazol-2-yl)-N-hydroxy-2-methyl-2-(methylsulfonyl)butanamide], the MIC in the experiment on E. coli ATCC25922 is 0.125 µg/mL (≈ 0.302 µM); with P. aeruginosa ATCC27853, 0.5 µg/mL (≈ 1.21 µM); in experiment [1] it was more than 32 µg/mL; with K. pneumoniae A-651 it was 0.125 µg/mL (≈ 0.302 µM).

Consider `C[C@@](CCn1cc2cc(C#Cc3ccc(C4(CO)CC4)cc3)ccc2n1)(C(=O)NO)S(C)(=O)=O` [Example 16, (R)—N-hydroxy-4-(5-((4-(1-(hydroxymethyl)cyclopropyl)phenyl)ethynyl)-2H-indazol-2-yl)-2-methyl-2-(methylsulfonyl)butanamide], for which the minimum inhibitory concentration (MIC) is 0.125 µg/mL (≈ 0.26 µM) in the experiment with E. coli ATCC25922, 1 µg/mL (≈ 2.08 µM) in the experiment with P. aeruginosa ATCC27853, 0.5 µg/mL (≈ 1.04 µM) in experiment [1] and 0.125 µg/mL (≈ 0.26 µM) in the experiment on K. pneumoniae A-651.

On to `C[C@@](CCn1cc2cc(/C=C/c3ccccc3)ccc2n1)(C(=O)NO)S(C)(=O)=O` [Example 17, (R)—N-hydroxy-2-methylsulfonyl-2-methyl-4-[5-((E)-styryl)-indazol-2-yl]-butanamide], for which the MIC is 0.063 µg/mL (≈ 0.152 µM) in the experiment with E. coli ATCC25922, 16 µg/mL (≈ 38.7 µM) with P. aeruginosa ATCC27853, 1 µg/mL (≈ 2.42 µM) in experiment [1] and 0.063 µg/mL (≈ 0.152 µM) with K. pneumoniae A-651.

Take `C[C@@](CCn1cc2cc(C#CC#C[C@H]3C[C@@H]3CO)c(F)cc2n1)(C(=O)NO)S(C)(=O)=O` [Example 53, (R)-4-(6-fluoro-5-(((1S,2S)-2-(hydroxymethyl)cyclopropyl)buta-1,3-diyn-1-yl)-2H-indazol-2-yl)-N-hydroxy-2-methyl-2-(methylsulfonyl)butanamide]: the MIC was not above 0.063 µg/mL with E. coli ATCC25922, 0.5 µg/mL (≈ 1.12 µM) with P. aeruginosa ATCC27853, 2 µg/mL (≈ 4.47 µM) in experiment [1] and 0.125 µg/mL (≈ 0.279 µM) in the experiment with K. pneumoniae A-651.

The MIC is the lowest concentration that inhibits growth of the organism.
